In US20070264247A1, “Use of Human Lysozyme in Preparation of Medicine for Treating Acne” (priority 2004, published 2007):
Values after ≈ are worked out from the molar mass of the structure shown. Like-named read-outs stand apart in the source and are kept apart here.

Key:
Assay in all cases: MIC by double agar dilution method, clinical isolates
Assay type in all cases: cell-based
Propionibacterium = tested on: Propionibacterium
Procedure: (§1) Strain: Pathogenic bacteria isolated from clinical laboratory collected from Sichuan, Beijing, 2002.4˜2003.9, assessed using the method of API in our laboratory.
(§2) Test the minimum inhibitory concentration (MIC) of the tested drug against the strains using the double agar dilution method. The tested drug was dissolved in sterile purified water and diluted properly. The drug-containing petri dishes were prepared by spiking 1 ml drug conclusion with melted 9 ml Tris —HCl agarose solid medium, using agar twofold dilution method and obtained the concentration of 4, 2, 1, 0.5, 0.25, 0.125, 0.06, 0.03 . . . 0.001 mg/ml. The strain solution of 10^5 CFU/ml was inoculated on the petri dishes using the multipoint inoculator, cultured for 8-10 h at 37° C., covered the petri dishes using melted 6 ml M-H Medium (50° C.) respectively, cultured for 10 h at 37° C. The minimal concentration of the drug-containing petri dishes which had no bacterium growth was the minimal inhibitory concentration (MIC).

Klebsiella pneumoniae = tested on: Klebsiella pneumoniae
Procedure: as §1, §2

Serratia marcescens = tested on: Serratia marcescens
Procedure: as §1, §2

Escherichia coli = tested on: Escherichia coli
Procedure: as §1, §2

Staphylococcus aureus = tested on: Staphylococcus aureus
Procedure: as §1, §2

[1] = tested on: Staphylococcu epidermidis
Procedure: as §1, §2

[2] = Serratia marcescens 2-31-8 (first line)
[3] = Serratia marcescens 2-31-8 (second line)
[4] = Serratia marcescens 2-31-8 (third line)
[5] = Escherichia coli 03-2-41, read-out: MIC
[6] = Escherichia coli 03-2-42, read-out: MIC
[7] = Escherichia coli 03-2-43, read-out: MIC
[8] = Escherichia coli 03-2-45, read-out: MIC
[9] = Escherichia coli 03-2-51, read-out: MIC
[10] = Escherichia coli 03-2-52, read-out: MIC
[11] = Escherichia coli 03-2-53, read-out: MIC
[12] = Escherichia coli 03-2-54, read-out: MIC
[13] = Escherichia coli 03-2-56, read-out: MIC
[14] = Escherichia coli 03-2-57, read-out: MIC
[15] = Escherichia coli 03-2-58, read-out: MIC
[16] = Staphylococcus aureus MRSA02-22, read-out: MIC
[17] = Staphylococcus aureus MRSA02-23
[18] = Staphylococcus aureus MRSA02-26
[19] = Staphylococcus aureus MRSA02-28
[20] = Staphylococcu epidermidis MRSE02-3
[21] = Staphylococcu epidermidis MRSE02-4
[22] = Staphylococcu epidermidis MRSE02-5
[23] = Staphylococcu epidermidis MRSE02-6
[24] = Staphylococcu epidermidis MRSE02-10
[25] = Staphylococcu epidermidis MRSE02-11
[26] = Staphylococcu epidermidis MRSE02-12
[27] = Staphylococcu epidermidis MRSE02-15
[28] = Staphylococcu epidermidis MRSE02-17
[29] = Staphylococcu epidermidis MRSE02-18
[30] = Staphylococcu epidermidis MRSE02-20
[31] = Staphylococcu epidermidis MRSE02-20-1
[32] = Staphylococcu epidermidis MRSE02-20-2
[33] = Staphylococcu epidermidis MRSE02-20-3
[34] = Staphylococcu epidermidis MRSE02-20-4
[35] = Staphylococcu epidermidis MRSE02-20-5
[36] = Staphylococcu epidermidis MRSE02-20-6
[37] = Staphylococcu epidermidis MRSE02-20-7
[38] = Staphylococcu epidermidis MRSE02-20-8
[39] = Staphylococcu epidermidis MRSE02-20-9
[40] = Staphylococcu epidermidis MRSE02-21
[41] = Staphylococcu epidermidis MRSE02-22
[42] = Staphylococcu epidermidis MRSE02-29
[43] = Staphylococcu epidermidis MssE25

`CC[C@H]1OC(=O)[C@H](C)[C@@H](O[C@H]2C[C@@](C)(OC)[C@@H](O)[C@H](C)O2)[C@H](C)[C@@H](O[C@@H]2O[C@H](C)C[C@H](N(C)C)[C@H]2O)[C@](C)(OC)C[C@@H](C)C(=O)[C@H](C)[C@@H](O)[C@]1(C)O` [CLA, Clarithromycin] gave an MIC (Propionibacterium; Propionibacterium 02-7-4) of 2 µg/mL (≈ 2.67 µM), an MIC (Propionibacterium; Propionibacterium 02-7-5) of less than 1 µg/mL and an MIC (Propionibacterium; Propionibacterium 02-7-6) of 8 µg/mL (≈ 10.7 µM). It also gave an MIC (Propionibacterium; Propionibacterium 02-7-7) of 32 µg/mL (≈ 42.8 µM), an MIC (Propionibacterium; Propionibacterium 02-7-9) of 8 µg/mL (≈ 10.7 µM) and an MIC (Propionibacterium; Propionibacterium 03-2-22) of 1000 µg/mL (≈ 1340 µM). For the same compound, the MIC (Propionibacterium; Propionibacterium 03-2-30) was greater than 1000 µg/mL, the MIC (Propionibacterium; Propionibacterium 03-2-32) was 8 µg/mL (≈ 10.7 µM) and the MIC (Propionibacterium; Propionibacterium 03-2-33) was greater than 1000 µg/mL. The MIC (Propionibacterium; Propionibacterium 03-2-36) was 250 µg/mL (≈ 334 µM), the MIC (Propionibacterium; Propionibacterium 03-2-37) was greater than 1000 µg/mL and the MIC (Propionibacterium; Propionibacterium 03-2-39) was 500 µg/mL (≈ 668 µM). The MIC (Klebsiella pneumoniae; Klebsiella pneumoniae 02-6-14) was 63 µg/mL (≈ 84.2 µM), the MIC (Klebsiella pneumoniae; Klebsiella pneumoniae 02-6-18) was 500 µg/mL (≈ 668 µM) and the MIC (Serratia marcescens; [2]) was 8 µg/mL (≈ 10.7 µM). It also gave an MIC (Serratia marcescens; [3]) of 8 µg/mL (≈ 10.7 µM), an MIC (Serratia marcescens; [4]) of 16 µg/mL (≈ 21.4 µM) and an MIC (Escherichia coli) of 125 µg/mL (≈ 167 µM). It also gave an MIC (Escherichia coli; [5]) greater than 1000 µg/mL, an MIC (Escherichia coli; [6]) of 63 µg/mL (≈ 84.2 µM) and an MIC (Escherichia coli; [7]) of 16 µg/mL (≈ 21.4 µM). For the same compound, the MIC (Escherichia coli; [8]) was 250 µg/mL (≈ 334 µM), the MIC (Escherichia coli; [9]) was greater than 1000 µg/mL and the MIC (Escherichia coli; [10]) was greater than 1000 µg/mL. The MIC (Escherichia coli; [11]) was 30 µg/mL (≈ 40.1 µM), the MIC (Escherichia coli; [12]) was greater than 1000 µg/mL and the MIC (Escherichia coli; [13]) was 16 µg/mL (≈ 21.4 µM). The MIC (Escherichia coli; [14]) was 32 µg/mL (≈ 42.8 µM), the MIC (Escherichia coli; [15]) was greater than 1000 µg/mL and the MIC (Staphylococcus aureus; Staphylococcus aureus 02-19-5) was greater than 1000 µg/mL. It also gave an MIC (Staphylococcus aureus; [16]) greater than 1000 µg/mL, an MIC (Staphylococcus aureus; [17]) greater than 1000 µg/mL and an MIC (Staphylococcus aureus; [18]) greater than 1000 µg/mL. The MIC (Staphylococcus aureus; [19]) was greater than 1000 µg/mL, the MIC [1, 20] was greater than 1000 µg/mL and the MIC [1, 21] was 500 µg/mL (≈ 668 µM). It also gave an MIC [1, 22] of less than 1 µg/mL, an MIC [1, 23] of less than 1 µg/mL and an MIC [1, 24] of 1000 µg/mL (≈ 1340 µM). The MIC [1, 25] was less than 1 µg/mL, the MIC [1, 26] was 8 µg/mL (≈ 10.7 µM) and the MIC [1, 27] was 1000 µg/mL (≈ 1340 µM). The MIC [1, 28] was 250 µg/mL (≈ 334 µM), the MIC [1, 29] was less than 1 µg/mL and the MIC [1, 30] was greater than 1000 µg/mL. It also gave an MIC [1, 31] of less than 1 µg/mL, an MIC [1, 32] greater than 1000 µg/mL and an MIC [1, 33] greater than 1000 µg/mL. The MIC [1, 34] was greater than 1000 µg/mL, the MIC [1, 35] was greater than 1000 µg/mL and the MIC [1, 36] was greater than 1000 µg/mL. The MIC [1, 37] was 1000 µg/mL (≈ 1340 µM), the MIC [1, 38] was less than 1 µg/mL and the MIC [1, 39] was less than 1 µg/mL. The MIC [1, 40] was less than 1 µg/mL, the MIC [1, 41] was less than 1 µg/mL and the MIC [1, 42] was 30 µg/mL (≈ 40.1 µM). The MIC [1, 43] was less than 1 µg/mL.
In the case of `CC[C@H]1OC(=O)[C@H](C)[C@@H](O[C@H]2C[C@@](C)(OC)[C@@H](O)[C@H](C)O2)[C@H](C)[C@@H](O[C@@H]2O[C@H](C)C[C@H](N(C)C)[C@H]2O)[C@](C)(O)C[C@@H](C)/C(=N\OCOCCOC)[C@H](C)[C@@H](O)[C@]1(C)O` [ROX, Roxithromycin], the MIC (Propionibacterium; Propionibacterium 02-7-4) is reported as 2 µg/mL (≈ 2.39 µM), the MIC (Propionibacterium; Propionibacterium 02-7-5) is reported as less than 1 µg/mL and the MIC (Propionibacterium; Propionibacterium 02-7-6) is reported as 250 µg/mL (≈ 299 µM). For the same compound, the MIC (Propionibacterium; Propionibacterium 02-7-7) was 250 µg/mL (≈ 299 µM), the MIC (Propionibacterium; Propionibacterium 02-7-9) was 16 µg/mL (≈ 19.1 µM) and the MIC (Propionibacterium; Propionibacterium 03-2-22) was 1000 µg/mL (≈ 1190 µM). It also gave an MIC (Propionibacterium; Propionibacterium 03-2-30) greater than 1000 µg/mL, an MIC (Propionibacterium; Propionibacterium 03-2-32) of 500 µg/mL (≈ 597 µM) and an MIC (Propionibacterium; Propionibacterium 03-2-33) greater than 1000 µg/mL. It also gave an MIC (Propionibacterium; Propionibacterium 03-2-36) of 500 µg/mL (≈ 597 µM), an MIC (Propionibacterium; Propionibacterium 03-2-37) of 1000 µg/mL (≈ 1190 µM) and an MIC (Propionibacterium; Propionibacterium 03-2-39) of 1000 µg/mL (≈ 1190 µM). For the same compound, the MIC (Klebsiella pneumoniae; Klebsiella pneumoniae 02-6-14) was greater than 1000 µg/mL, the MIC (Klebsiella pneumoniae; Klebsiella pneumoniae 02-6-18) was 1000 µg/mL (≈ 1190 µM) and the MIC (Serratia marcescens; [2]) was 16 µg/mL (≈ 19.1 µM). The MIC (Serratia marcescens; [3]) was 16 µg/mL (≈ 19.1 µM), the MIC (Serratia marcescens; [4]) was 16 µg/mL (≈ 19.1 µM) and the MIC (Escherichia coli; [5]) was greater than 1000 µg/mL. For the same compound, the MIC (Escherichia coli; [6]) was greater than 1000 µg/mL, the MIC (Escherichia coli; [7]) was 250 µg/mL (≈ 299 µM) and the MIC (Escherichia coli; [8]) was 500 µg/mL (≈ 597 µM). The MIC (Escherichia coli; [9]) was greater than 1000 µg/mL, the MIC (Escherichia coli; [10]) was 250 µg/mL (≈ 299 µM) and the MIC (Escherichia coli; [11]) was 250 µg/mL (≈ 299 µM). For the same compound, the MIC (Escherichia coli; [12]) was 1000 µg/mL (≈ 1190 µM), the MIC (Escherichia coli; [13]) was 250 µg/mL (≈ 299 µM) and the MIC (Escherichia coli; [14]) was 250 µg/mL (≈ 299 µM). It also gave an MIC (Escherichia coli; [15]) of 500 µg/mL (≈ 597 µM), an MIC (Escherichia coli; Escherichia coli 03-2-59, read-out: MIC) of 250 µg/mL (≈ 299 µM) and an MIC (Staphylococcus aureus; Staphylococcus aureus 02-19-5) greater than 1000 µg/mL. The MIC (Staphylococcus aureus; [16]) was greater than 1000 µg/mL, the MIC (Staphylococcus aureus; [17]) was greater than 1000 µg/mL and the MIC (Staphylococcus aureus; [18]) was greater than 1000 µg/mL. It also gave an MIC (Staphylococcus aureus; [19]) greater than 1000 µg/mL, an MIC [1, 20] greater than 1000 µg/mL and an MIC [1, 21] greater than 1000 µg/mL. It also gave an MIC [1, 22] of less than 1 µg/mL, an MIC [1, 23] of less than 1 µg/mL and an MIC [1, 24] of 1000 µg/mL (≈ 1190 µM). It also gave an MIC [1, 25] of less than 1 µg/mL, an MIC [1, 26] of 125 µg/mL (≈ 149 µM) and an MIC [1, 27] greater than 1000 µg/mL. The MIC [1, 28] was greater than 1000 µg/mL, the MIC [1, 29] was less than 1 µg/mL and the MIC [1, 30] was greater than 1000 µg/mL. For the same compound, the MIC [1, 31] was less than 1 µg/mL, the MIC [1, 32] was greater than 1000 µg/mL and the MIC [1, 33] was greater than 1000 µg/mL. The MIC [1, 34] was greater than 1000 µg/mL, the MIC [1, 35] was greater than 1000 µg/mL and the MIC [1, 36] was greater than 1000 µg/mL. The MIC [1, 37] was 1000 µg/mL (≈ 1190 µM), the MIC [1, 38] was less than 1 µg/mL and the MIC [1, 39] was less than 1 µg/mL. For the same compound, the MIC [1, 40] was less than 1 µg/mL, the MIC [1, 41] was less than 1 µg/mL and the MIC [1, 42] was 500 µg/mL (≈ 597 µM). The MIC [1, 43] was less than 1 µg/mL.
